A value given as a limit tells only on which side of the number the result lay.

For the first data set, the system named is Human immunodeficiency virus 1. Kind of data set: Antiviral activity against VSV-G protein pseudotyped HIV1 luciferase reporter virus in mixture of human HeLa/JC53 cells assessed as luminescence after 48 hrs. The settings on record: Human immunodeficiency virus 1, Hela-JC53, 48 h. In kind it is functional, organism-based. (Reporter assays use an easily measured gene product as a stand-in for the process of interest.)
`CC(C)(C)[C@@H](CO)n1cc(C(=O)O)c(=O)c2cc(Cc3cccc(Cl)c3F)c(O)nc21`: the half-maximal effective concentration (EC50) (usually the midpoint of the concentration-response curve) was determined as 2.7 nM.

Regarding `CCOc1nc2c(cc1Cc1cccc(Cl)c1F)c(=O)c(C(=O)O)cn2[C@H](CO)C(C)(C)C`, the concentration giving a half-maximal response (EC50) is 1.4 nM.

In the case of `CC(C)Oc1nc2c(cc1Cc1cccc(Cl)c1F)c(=O)c(C(=O)O)cn2[C@H](CO)C(C)(C)C`, the concentration for a half-maximal effect (EC50) amounted to 16 nM.

Take `CC(C)(C)[C@@H](CO)n1cc(C(=O)O)c(=O)c2cc(Cc3cccc(Cl)c3F)c(OCCO)nc21`: the EC50 was 0.9 nM.

As to `COc1nc2c(cc1Nc1cccc(Cl)c1F)c(=O)c(C(=O)O)cn2[C@H](CO)C(C)C`, the EC50 is above 2500 nM.

For the compound `COc1nc2c(cc1Nc1ccc(Cl)c(F)c1)c(=O)c(C(=O)O)cn2[C@H](CO)C(C)C`, the EC50 is above 2500 nM.

Regarding `COc1nc2c(cc1Nc1ccc(F)cc1)c(=O)c(C(=O)O)cn2[C@H](CO)C(C)C`, the EC50 is above 2500 nM.

On to `COc1nc2c(cc1NCc1cccc(Cl)c1F)c(=O)c(C(=O)O)cn2[C@H](CO)C(C)C`, for which the EC50 was 490 nM.

Regarding `COc1nc2c(cc1NCc1ccc(F)cc1)c(=O)c(C(=O)O)cn2[C@H](CO)C(C)C`, the 50% effective concentration (EC50) amounted to 98 nM.

On to `COc1nc2c(cc1NCc1ccc(F)cc1)c(=O)c(C(=O)O)cn2[C@H](CO)C(C)(C)C`, for which the EC50 worked out at 150 nM.

As for `COc1nc2c(cc1NCc1cccc(F)c1)c(=O)c(C(=O)O)cn2[C@H](CO)C(C)C`, the EC50 is 1460 nM.

For the compound `COc1nc2c(cc1NCc1ccccc1F)c(=O)c(C(=O)O)cn2[C@H](CO)C(C)C`, the EC50 was 81 nM.

On to `COc1nc2c(cc1NCc1ccc(F)cc1F)c(=O)c(C(=O)O)cn2[C@H](CO)C(C)C`, for which the 50% effective concentration (EC50) turned out to be 4.6 nM.

Turning to `COc1nc2c(cc1NCc1c(F)cc(F)cc1F)c(=O)c(C(=O)O)cn2[C@H](CO)C(C)C`, the EC50 came out at 1.4 nM.

The next data set relates to Human immunodeficiency virus 1. Kind of data set: Antiviral activity against VSV-G protein pseudotyped HIV1 luciferase reporter virus in mixture of human HeLa/JC53 cells assessed as luminescence after 48 hrs in presence of 40% human serum. The format is functional, organism-based. Conditions: Human immunodeficiency virus 1, Hela-JC53, 48 h.
For `CC(C)(C)[C@@H](CO)n1cc(C(=O)O)c(=O)c2cc(Cc3cccc(Cl)c3F)c(O)nc21`, the 50% effective concentration (EC50) came out at 199 nM.

For `CCOc1nc2c(cc1Cc1cccc(Cl)c1F)c(=O)c(C(=O)O)cn2[C@H](CO)C(C)(C)C`, the EC50 came to 19 nM.

On to `CC(C)Oc1nc2c(cc1Cc1cccc(Cl)c1F)c(=O)c(C(=O)O)cn2[C@H](CO)C(C)(C)C`, for which the concentration for a half-maximal effect (EC50) turned out to be 195 nM.

As to `CC(C)(C)[C@@H](CO)n1cc(C(=O)O)c(=O)c2cc(Cc3cccc(Cl)c3F)c(OCCO)nc21`, the EC50 was determined as 2.4 nM.

For the compound `COc1nc2c(cc1NCc1cccc(Cl)c1F)c(=O)c(C(=O)O)cn2[C@H](CO)C(C)C`, the 50% effective concentration (EC50) came to 2680 nM.

With `COc1nc2c(cc1NCc1ccc(F)cc1)c(=O)c(C(=O)O)cn2[C@H](CO)C(C)C`, the EC50 amounted to 421 nM.

Regarding `COc1nc2c(cc1NCc1ccc(F)cc1)c(=O)c(C(=O)O)cn2[C@H](CO)C(C)(C)C`, the EC50 turned out to be 385 nM.

Take `COc1nc2c(cc1NCc1cccc(F)c1)c(=O)c(C(=O)O)cn2[C@H](CO)C(C)C`: the EC50 was 1590 nM.

Turning to `COc1nc2c(cc1NCc1ccccc1F)c(=O)c(C(=O)O)cn2[C@H](CO)C(C)C`, the half-maximal effective concentration (EC50) came out at 283 nM.

Consider `COc1nc2c(cc1NCc1ccc(F)cc1F)c(=O)c(C(=O)O)cn2[C@H](CO)C(C)C`, for which the concentration for a half-maximal effect (EC50) is 139 nM.

For `COc1nc2c(cc1NCc1c(F)cc(F)cc1F)c(=O)c(C(=O)O)cn2[C@H](CO)C(C)C`, the EC50 was 52 nM.

Test system in a further data set: not listed separately
Put plainly: Metabolic stability in human liver microsome assessed as compound remaining after 30 mins. In kind it is ADME. Conditions: liver microsomes, read-out: Stability.
In the case of `CC(C)(C)[C@@H](CO)n1cc(C(=O)O)c(=O)c2cc(Cc3cccc(Cl)c3F)c(O)nc21`, the remaining at 0.5 h was 87%.

As for `CCOc1nc2c(cc1Cc1cccc(Cl)c1F)c(=O)c(C(=O)O)cn2[C@H](CO)C(C)(C)C`, the remaining at 0.5 h came to 84%.

As to `CC(C)(C)[C@@H](CO)n1cc(C(=O)O)c(=O)c2cc(Cc3cccc(Cl)c3F)c(OCCO)nc21`, the remaining at 0.5 h stood at 45%.

Regarding `COc1nc2c(cc1NCc1ccc(F)cc1)c(=O)c(C(=O)O)cn2[C@H](CO)C(C)C`, the remaining at 0.5 h came to 87%.

With `COc1nc2c(cc1NCc1ccccc1F)c(=O)c(C(=O)O)cn2[C@H](CO)C(C)C`, the remaining at 0.5 h turned out to be 97%.

In the case of `COc1nc2c(cc1NCc1ccc(F)cc1F)c(=O)c(C(=O)O)cn2[C@H](CO)C(C)C`, the remaining at 0.5 h stood at 87%.

Consider `COc1nc2c(cc1NCc1c(F)cc(F)cc1F)c(=O)c(C(=O)O)cn2[C@H](CO)C(C)C`, for which the remaining at 0.5 h amounted to 82%.

The values above are taken from ChEMBL document CHEMBL1641454, “6-Benzylamino 4-oxo-1,4-dihydro-1,8-naphthyridines and 4-oxo-1,4-dihydroquinolines as HIV integrase inhibitors” (Bioorg Med Chem Lett, 2011).
